Results from patent US20240374563A1, “ANTICHOLINERGIC COMPOUNDS FOR USE IN TREATING NEUROMUSCULAR DISORDERS” (UNIVERSITY OF MONTRÉAL, priority 2022, published 2024).

Experiments:
[1] = system: PSC muscarinic receptors (mAChRs); conditions: SOD1 mice, 15 mg/kg for 30 days; SOL muscle
Description: Mice were then sacrificed, and muscles dissected with their innervation and placed in a physiological recording chamber. We performed Ca^2+ imaging on the SOL muscle to evaluate PSCs synaptic detection of neurotransmission elicited by motor nerve stimulation (50 Hz-5 sec) or local applications of the mAChRs agonist muscarine for the treated and the placebo groups.
Preparations of SOL muscles and their innervation were dissected and pinned in a Sylgard-coated experimental chamber filled with an oxygenated Ree's solution (in mM, all Sigma), as follows: 110 NaCl, 5 KCl, 1 MgCl2, 25 NaHCO3, 2 CaCl2, 11 glucose, 0.3 glutamic acid, 0.4 glutamine, 5 BES (N,N-Bis(2-hydroxyethyl)-2-aminoethanesulfonic acid sodium salt), 0.036 choline chloride, and 4.34×10^−7 cocarboxylase. Nerve-muscle preparations were incubated for 90 min (2×45 min) in a preoxygenated saline solution containing 10 μM fluo-4AM (Invitrogen) and 0.02% pluronic acid (Invitrogen). After the loading, nerve muscle preparations were constantly perfused with a warm (26-28° C.) oxygenated Ree's solution (95% O2, 5% CO2). Basel level of fluorescence was always set within the same range of arbitrary units, using the same software and hardware settings. Changes in fluorescence were measured over PSC soma and expressed as follows: % ΔF/F=(F-Frest)/Frest×100. Experiments were discarded when focus drift occurred. […]

SOD1^G37R mice [2] = experiment: EDL muscle weight; type: in vivo, mouse
SOD1^G37R mice [3] = experiment: Gait analysis (footprint test); type: in vivo, mouse; conditions: P520; treatment from disease onset; N=8
Method: Finally, we aimed to better characterize the walking pattern of the mice following treatment. We measured the gait by performing a footprint analysis using inked paws.
Gait was assessed using the footprint test. Paws were inked with a nontoxic paint (fore-paws in blue and hind-paws in red), mice were placed on a restricted pathway on a white paper sheet (30 cm long, 6 cm wide) and free to walk along the walkway. Five footsteps from each run were measured for the following parameters (cm): (1) stride length ([…]) and (2) Step width (distance between left and right paws). The mean value of each set of outcomes was calculated for statistical analysis.

PSC purinergic receptors = experiment: Calcium imaging of PSCs: Ca2+ responses to local ATP application; type: in vivo, SOD1^G37R mice
SOD1^G37R mice [4] = experiment: Grip strength; type: in vivo, mouse; conditions: from P490 until the end of the trial; treatment from disease onset; N=19
Description: Mice of the darifenacin and placebo groups began the trial with a similar grip strength force.
The pre-clinial trial design was made according to guidelines for preclinical animal research in ALS/MND [35]. Male mice from the SOD1^G37R background and their WT littermates were included in the preclinical study. Mice were randomly assigned to the experimental or the placebo group. Treatment, behavior monitoring, experiments and results analysis were done blindly. Standard ALS behavioral measurements were performed biweekly to measure disease progression in the various study groups. This includes rotarod test. grip strength measurements, weight measurements and tail suspension test to assess hindlimb extension reflex.

SOD1^G37R mice [5] = experiment: Rotarod acceleration protocol; type: in vivo, mouse
Method: Third, the motor performance, balance and coordination, were measured using a standard acceleration protocol on the Rotarod (FIG. 8A), which is known to reveal ALS motor deficits as disease progresses.
Motor coordination, strength and balance were assessed using a rotarod (TSE Rotarod, TSE Systems Gmbh, Germany). Animals were placed onto a rotating wheel at a starting speed of 4 rpm, increasing to 40 rpm in 300 seconds. Mice had two attempts per session to remain on the rotarod during the acceleration protocol, and the longest latency to fall was counted.

SOD1^G37R mice [6] = experiment: Survival cohort; conditions: continuous treatment from disease onset (P450) until end stage; N=10
[7] = Darifenacin level in blood; type: in vivo; conditions: SOD1 mice after oral treatment; levels consistent with pre-clinical data; data not shown
Method: We opted for the dosage at 10 mg/kg since the primary goal is to restore PSCs activity by dampening their muscarinic activity close to WT levels. […] These were both essential steps to pursue the study.

SOD1^G37R mice [8] = experiment: NMJ innervation status and NMJ repair signs by immunohistochemistry; type: in vivo, mouse
Method: We characterized EDL innervation status, a vulnerable fast-twitch muscle in ALS [3, 25-27], by classifying NMJs into fully innervated, partially innervated and denervated NMJs (FIG. 2A).
Neuromuscular innervation: Immunostaining was performed on EDL and SOL muscle previously described. Briefly, NMJs were labeled to visualise the axon terminal, Schwann cells and the post-synaptic receptors. The presynaptic element was labeled using an anti-synaptic vesicular protein 2 (SV2, 1:2000, Developmental Studies Hybridoma Bank) and an anti-neurofilament M, (NF-M, 1:1000, Rockland Immunochemicals Inc). PSCs and Schwann cells were labeled with anti-S100β antibody (1:4, Z0311, Dako) and post-synaptic receptors with Alexa594-conjugated-α-BTX (1.33 μg/ml, Molecular Probes, Fischer Scientific, Canada).
Observations and image acquisition were obtained using a Zeiss LSM 880 confocal microscope, with a 63× oil immersion objective (N.A. 1.4) or an Olympus FV 1000, with either a 63× oil immersion objective or a 20× water immersion objective (respectively N.A. 0.95 and 0.90). No image manipulations were performed after acquisition, except for brightness and contrast adjustments for figure presentation.

[9] = EDL, pre-onset treatment P400 until P480
[10] = EDL, treatment from disease onset (P450), 10 mg/kg orally, to P520
[11] = EDL, treatment from disease onset, 10 mg/kg orally

## NC(=O)C(c1ccccc1)(c1ccccc1)[C@@H]1CCN(CCc2ccc3c(c2)CCO3)C1 [darifenacin]
[1]
  PSCs muscarinic activation: greatly abolished
SOD1^G37R mice [2]; pre-onset treatment P400 until P520, N=4, n=7
  EDL muscle weight: 9.1 ± 0.55 mg
SOD1^G37R mice [2]; treatment from disease onset, N=8, n=16
  EDL muscle weight: 11.79 ± 0.34 mg
SOD1^G37R mice [3]
  step width: 2.62±0.16 cm
  stride length: 4.13±0.36 cm
PSC purinergic receptors; SOD1G37R mice, 10 mg/kg orally for 5 days
  PSC Ca2+ response to ATP, Darifenacin vs DMSO vs non-treated wild type: no difference
PSC purinergic receptors; SOD1 mice, 10 or 15 mg/kg for 30 days
  effect on purinergic signaling of PSCs (Ca2+ responses to local ATP): no effect
SOD1^G37R mice [4]
  grip strength vs placebo: performed better
SOD1^G37R mice [5]; at P520 and P525, treatment from disease onset, N=22
  Rotarod latency to fall vs placebo: significantly higher score
SOD1^G37R mice [5]; late symptomatic stage, data not shown
  share of group still able to stand for several seconds on the rotating rod: more than half
SOD1^G37R mice [6]
  median lifespan: 551 days
[7]
  darifenacin in the blood: detected in the blood
SOD1^G37R mice [8]; [9]
  animals in which glial process extensions were seen: 5 out of 6
  percentage of denervated NMJs: 15.7±5.9%
  percentage of partially innervated NMJs: 33.9±5.1%
SOD1^G37R mice [8]; EDL, pre-onset treatment P400 until P480, N=6, n=145
  percentage of fully innervated NMJs: 50.4±9.2%
SOD1^G37R mice [8]; EDL, treatment from disease onset (P450), 10 mg/kg orally 5 days a week, to P520, N=7, n=293
  percentage of denervated NMJs: 5.6±1.8%
SOD1^G37R mice [8]; [10]
  percentage of fully innervated NMJs: 70.1±4.2%
  percentage of partially innervated NMJs: 24.2±4.0%
SOD1^G37R mice [8]; [11]
  percentage of NMJs presenting nerve sprouting: 21.5±4.3%
  percentage of NMJs with glial processes alone: 2.2±1.8%
  percentage of NMJs with polyinnervation: 6.4±2.8
SOD1^G37R mice [8]; SOL and EDL, pre-onset treatment P400 until P480
  NMJ repair signs (nerve sprouting, polyinnervation, glial processes) vs placebo: no evidence of significant difference
SOD1^G37R mice [8]; SOL, pre-onset treatment P400 until P480
  percentage of partially innervated NMJs: 34.9±8.6%
SOD1^G37R mice [8]; SOL, pre-onset treatment P400 until P480, N=4, n=118
  percentage of fully innervated NMJs: 60.5±8.2%
